Experimental data reported in ChEMBL document CHEMBL1909046, “DrugMatrix in vitro pharmacology data”.

Tests used:
[1] = DRUGMATRIX: Potassium Channel [KATP] radioligand binding (ligand: [3H] Glyburide); format: cell membranes, Membrane; conditions: hit-t15, Not Active = under 50% inhibition at 10 µM
Adenosine receptor A1 = molecular target: T1, Adenosine receptor A1 (Homo sapiens, UniProt P30542); format: cell membranes, Membrane; conditions: cho;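 also: radioligand binding assay at the adenosine A1 receptor, with DPCPX serving as the labelled ligand; in other assays of this panel Not Active means under 50% inhibition at 10 µM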
T1 sequence (P30542 whole entry): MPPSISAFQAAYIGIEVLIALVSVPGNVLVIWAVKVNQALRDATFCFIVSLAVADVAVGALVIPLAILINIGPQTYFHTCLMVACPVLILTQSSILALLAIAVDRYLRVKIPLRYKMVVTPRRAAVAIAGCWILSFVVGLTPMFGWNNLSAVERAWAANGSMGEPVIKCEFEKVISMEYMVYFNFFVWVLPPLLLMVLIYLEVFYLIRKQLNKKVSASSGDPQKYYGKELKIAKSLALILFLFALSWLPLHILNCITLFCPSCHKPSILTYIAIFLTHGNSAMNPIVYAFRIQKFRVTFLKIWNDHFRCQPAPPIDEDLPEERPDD

[2] = DRUGMATRIX: Phosphodiesterase PDE4 enzyme inhibition (substrate: [3H]cAMP + cAMP); conditions: u-937; Not Active = under 50% inhibition at 10 µM
Cytochrome P450 2E1 = Cytochrome P450 2E1 (Homo sapiens, UniProt P05181); conditions: bti-tn-5b1-4; also: in other assays of this panel Not Active means under 50% inhibition at 10 µM
Sequence of Cytochrome P450 2E1 (P05181 whole entry): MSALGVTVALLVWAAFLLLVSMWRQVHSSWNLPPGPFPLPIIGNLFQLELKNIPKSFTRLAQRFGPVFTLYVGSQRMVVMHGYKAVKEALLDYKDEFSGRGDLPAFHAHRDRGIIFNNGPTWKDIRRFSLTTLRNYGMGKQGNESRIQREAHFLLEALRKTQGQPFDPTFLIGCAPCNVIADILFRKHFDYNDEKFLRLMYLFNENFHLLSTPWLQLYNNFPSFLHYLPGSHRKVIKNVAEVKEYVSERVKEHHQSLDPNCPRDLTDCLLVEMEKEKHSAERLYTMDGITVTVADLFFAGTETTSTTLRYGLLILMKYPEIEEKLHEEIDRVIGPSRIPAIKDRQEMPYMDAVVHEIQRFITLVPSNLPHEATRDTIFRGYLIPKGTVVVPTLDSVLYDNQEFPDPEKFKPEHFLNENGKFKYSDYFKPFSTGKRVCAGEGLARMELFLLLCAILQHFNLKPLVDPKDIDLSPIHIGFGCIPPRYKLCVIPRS

[3] = molecular target: T2, Alpha-1A adrenergic receptor (Rattus norvegicus, UniProt P43140); test: DRUGMATRIX: Alpha-1A adrenergic receptor radioligand binding (ligand: prazosin); format: cell membranes, Wistar, Submaxillary gland, Membrane; conditions: Not Active = under 50% inhibition at 10 µM
T2 sequence (P43140 whole entry): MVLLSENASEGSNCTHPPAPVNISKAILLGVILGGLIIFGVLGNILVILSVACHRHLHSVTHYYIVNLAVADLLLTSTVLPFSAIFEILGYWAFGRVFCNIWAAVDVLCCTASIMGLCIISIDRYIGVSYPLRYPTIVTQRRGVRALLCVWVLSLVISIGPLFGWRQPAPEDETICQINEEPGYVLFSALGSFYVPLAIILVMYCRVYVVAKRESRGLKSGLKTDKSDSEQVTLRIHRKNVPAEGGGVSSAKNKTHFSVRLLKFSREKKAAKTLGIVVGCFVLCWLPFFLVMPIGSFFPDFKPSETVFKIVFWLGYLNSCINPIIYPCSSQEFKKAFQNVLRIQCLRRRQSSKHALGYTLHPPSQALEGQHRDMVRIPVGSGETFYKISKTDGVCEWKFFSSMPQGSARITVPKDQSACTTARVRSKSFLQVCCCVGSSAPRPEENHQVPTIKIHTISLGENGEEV

[4] = molecular target: Protein phosphatase 3 catalytic subunit alpha (Homo sapiens, UniProt Q08209); parameters: species or system Escherichia coli;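 also: inhibition of calcineurin (PP2B) enzyme activity, measured with DiFMUP as the substrate; in other assays of this panel Not Active means under 50% inhibition at 10 µM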
Cathepsin G = molecular target: T3, Cathepsin G (Homo sapiens, UniProt P08311); format: tissue-based; conditions: neutrophil;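 also: inhibition of Cathepsin G enzyme activity, tested on an AMC-conjugated peptide substrate; in other assays of this panel Not Active means under 50% inhibition at 10 µM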
T3 sequence (P08311 whole entry): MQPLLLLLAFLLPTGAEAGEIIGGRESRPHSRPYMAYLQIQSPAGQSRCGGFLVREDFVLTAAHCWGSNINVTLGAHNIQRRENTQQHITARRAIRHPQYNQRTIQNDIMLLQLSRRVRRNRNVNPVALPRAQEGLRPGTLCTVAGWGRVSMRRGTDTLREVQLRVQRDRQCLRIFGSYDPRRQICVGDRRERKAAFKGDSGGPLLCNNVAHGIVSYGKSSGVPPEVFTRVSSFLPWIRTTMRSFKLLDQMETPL

Thromboxane-A synthase = molecular target: T4, Thromboxane-A synthase (Homo sapiens, UniProt P24557); test: biochemical; format: tissue-based, Platelet; conditions: platelet
T4 sequence (P24557 whole entry): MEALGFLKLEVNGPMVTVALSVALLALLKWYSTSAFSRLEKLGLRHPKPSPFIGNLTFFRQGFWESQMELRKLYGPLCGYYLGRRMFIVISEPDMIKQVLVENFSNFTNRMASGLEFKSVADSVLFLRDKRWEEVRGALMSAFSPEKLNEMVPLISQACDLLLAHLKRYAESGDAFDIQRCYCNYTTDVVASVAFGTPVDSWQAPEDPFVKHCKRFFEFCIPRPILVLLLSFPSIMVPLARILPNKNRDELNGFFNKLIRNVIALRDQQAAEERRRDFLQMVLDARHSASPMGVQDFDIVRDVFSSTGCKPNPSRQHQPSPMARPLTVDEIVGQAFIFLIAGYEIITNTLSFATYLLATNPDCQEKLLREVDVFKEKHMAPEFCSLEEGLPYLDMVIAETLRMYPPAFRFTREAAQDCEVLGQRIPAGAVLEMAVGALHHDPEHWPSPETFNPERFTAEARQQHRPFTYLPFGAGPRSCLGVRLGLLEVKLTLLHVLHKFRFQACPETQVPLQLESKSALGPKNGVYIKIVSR

Substance-P receptor = Substance-P receptor (Homo sapiens, UniProt P25103); format: cell membranes, Membrane; conditions: cho; also: in other assays of this panel Not Active means under 50% inhibition at 10 µM
Sequence of Substance-P receptor (P25103 whole entry): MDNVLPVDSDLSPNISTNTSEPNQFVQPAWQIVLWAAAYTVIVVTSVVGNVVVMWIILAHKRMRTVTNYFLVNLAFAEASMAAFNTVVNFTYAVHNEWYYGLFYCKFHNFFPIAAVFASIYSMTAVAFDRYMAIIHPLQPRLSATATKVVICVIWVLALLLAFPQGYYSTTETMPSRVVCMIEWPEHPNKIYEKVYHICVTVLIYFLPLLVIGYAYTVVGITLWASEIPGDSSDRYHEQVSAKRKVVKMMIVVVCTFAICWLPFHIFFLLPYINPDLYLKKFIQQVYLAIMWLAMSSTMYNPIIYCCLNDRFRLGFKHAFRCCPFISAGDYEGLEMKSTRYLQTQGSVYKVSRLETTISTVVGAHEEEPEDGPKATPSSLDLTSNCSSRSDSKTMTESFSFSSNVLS

| Structure (SMILES) | IC50 ([1]; read-out: IC50) [nM] | Ki ([1]; read-out: Ki) [nM] | IC50 (Adenosine receptor A1) | IC50 [2] | Ki [2] | IC50 (Cytochrome P450 2E1) | Ki (Cytochrome P450 2E1) | IC50 [3] | IC50 [4] | IC50 (Cathepsin G) | IC50 (Thromboxane-A synthase) | IC50 (Substance-P receptor) | IC50 [1] | Ki [1] |
| --- | --- | --- | --- | --- | --- | --- | --- | --- | --- | --- | --- | --- | --- | --- |
| CC(C)[C@H]1CC[C@H](C(=O)N[C@H](Cc2ccccc2)C(=O)O)CC1 [NATEGLINIDE] | 1670 | 189 | Not Active | Not Active | Not Active | Not Active | Not Active | Not Active | Not Active | Not Active | Not Active | Not Active | – | – |
| CCN[C@@H]1C[C@H](N)[C@@H](O[C@H]2OC(CN)=CC[C@H]2N)[C@H](O)[C@H]1O[C@H]1OC[C@](C)(O)[C@H](NC)[C@H]1O [NETILMICIN] | – | – | Not Active | Not Active | Not Active | Not Active | Not Active | Not Active | Not Active | Not Active | Not Active | Not Active | Not Active | Not Active |
| COC(=O)C1=C(C)NC(C)=C(C(=O)OCC(C)C)C1c1ccccc1[N+](=O)[O-] (stereo unspecified) [NISOLDIPINE] | – | – | Not Active | Not Active | Not Active | Not Active | Not Active | Not Active | Not Active | Not Active | Not Active | Not Active | Not Active | Not Active |
| CCOC(=O)C1=C(C)NC(C)=C(C(=O)OC)C1c1cccc([N+](=O)[O-])c1 (stereo unspecified) [NITRENDIPINE] | – | – | Not Active | Not Active | Not Active | Not Active | Not Active | Not Active | Not Active | Not Active | Not Active | Not Active | Not Active | Not Active |
| C#C[C@]1(OC(C)=O)CC[C@H]2[C@@H]3CCC4=CC(=O)CC[C@@H]4[C@H]3CC[C@@]21C [NORETHINDRONE ACETATE] | – | – | Not Active | Not Active | Not Active | Not Active | Not Active | Not Active | Not Active | Not Active | Not Active | Not Active | Not Active | Not Active |
| COc1ccc2[nH]c([S+]([O-])Cc3ncc(C)c(OC)c3C)nc2c1 (stereo unspecified) [OMEPRAZOLE] | – | – | Not Active | Not Active | Not Active | Not Active | Not Active | Not Active | Not Active | Not Active | Not Active | Not Active | Not Active | Not Active |
| Cc1nccn1CC1CCc2c(c3ccccc3n2C)C1=O (stereo unspecified) [ONDANSETRON] | – | – | Not Active | Not Active | Not Active | Not Active | Not Active | Not Active | Not Active | Not Active | Not Active | Not Active | Not Active | Not Active |
| CCCCOc1ccc(OCCCN2CCOCC2)cc1 [PRAMOXINE] | – | – | Not Active | Not Active | Not Active | Not Active | Not Active | Not Active | Not Active | Not Active | Not Active | Not Active | Not Active | Not Active |
